This passage reports Kd results from patent US10323036B2 (Nimbus Lakshmi, Inc., priority 2016, dated 2019).

This experiment addresses human TYK2 (JH2domain-pseudokinase) (Homo sapiens (Human), UniProt P29597). Kind of experiment: TYK2 JH2 Domain Binding Assay (KINOMEscan). The following applies: read-out: JH2 Kd.
Where [1] appears, read: Table 5, Tyk2 JH2 Domain Binding Assay.

Like-named read-outs stand apart in the source and are kept apart here.

Chain of human TYK2 (JH2domain-pseudokinase) (P29597 556-888): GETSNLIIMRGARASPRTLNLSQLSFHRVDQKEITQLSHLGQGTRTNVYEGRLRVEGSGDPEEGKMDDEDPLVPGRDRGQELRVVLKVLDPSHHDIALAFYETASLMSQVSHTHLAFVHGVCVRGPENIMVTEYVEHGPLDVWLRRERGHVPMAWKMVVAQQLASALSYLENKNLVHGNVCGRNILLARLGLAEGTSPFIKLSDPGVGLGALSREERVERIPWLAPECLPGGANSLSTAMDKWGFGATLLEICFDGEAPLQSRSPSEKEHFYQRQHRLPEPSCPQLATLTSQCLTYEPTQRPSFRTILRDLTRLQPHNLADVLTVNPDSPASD

For `CN(c1ccccc1Nc1cc(Nc2cc3c(cn2)OCC3)nc2[nH]n(C)c(=O)c12)S(C)(=O)=O` [Compound I-226, N-(2-((6-((2,3-dihydrofuro[2,3-c]pyridin-5-yl)amino)-2-methyl-3-oxo-2,3-dihydro-1H-pyrazolo[3,4-b]pyridin-4-yl)amino)phenyl)-N-methylmethanesulfonamide], where the note is “Table 4, JH2 binding assay”, the Kd lay within 100 to 500 pM. The same measure, in the same setting: next, `CN(c1ccccc1Nc1cc(Nc2cc3c(cn2)COC3)nc2[nH]n(C)c(=O)c12)S(C)(=O)=O` [Compound I-227, N-(2-((6-((1,3-dihydrofuro[3,4-c]pyridin-6-yl)amino)-2-methyl-3-oxo-2,3-dihydro-1H-pyrazolo[3,4-b]pyridin-4-yl)amino)phenyl)-N-methylmethanesulfonamide]: less than 100 pM; `CN(c1cc(Cl)ccc1Nc1cc(NC(=O)C2CC2)nc2[nH]n(C)c(=O)c12)S(C)(=O)=O` [Compound I-228, N-(4-((4-chloro-2-(N-methylmethylsulfonamido)phenyl)amino)-2-methyl-3-oxo-2,3-dihydro-1H-pyrazolo[3,4-b]pyridin-6-yl)cyclopropanecarboxamide]: 100 to 500 pM; `Cc1ccc(Nc2cc(NC(=O)C3CC3)nc3[nH]n(C)c(=O)c23)c(N(C)S(C)(=O)=O)c1` [Compound I-229, N-(2-methyl-4-((4-methyl-2-(N-methylmethylsulfonamido)phenyl)amino)-3-oxo-2,3-dihydro-1H-pyrazolo[3,4-b]pyridin-6-yl)cyclopropanecarboxamide]: less than 100 pM. On the same count and under the same terms, next, `CN(c1cc(F)c(F)cc1Nc1cc(NC(=O)C2CC2)nc2[nH]n(C)c(=O)c12)S(C)(=O)=O` [Compound I-230, N-(4-((4,5-difluoro-2-(N-methylmethylsulfonamido)phenyl)amino)-2-methyl-3-oxo-2,3-dihydro-1H-pyrazolo[3,4-b]pyridin-6-yl)cyclopropanecarboxamide]: 500 to 1000 pM. Same read-out and setting: next, `COc1c(Nc2cc(NC(=O)C3CC3)nc3[nH]n(C)c(=O)c23)cccc1C(=O)O` [Compound I-231, 3-((6-(cyclopropanecarboxamido)-2-methyl-3-oxo-2,3-dihydro-1H-pyrazolo[3,4-b]pyridin-4-yl)amino)-2-methoxybenzoic acid]: 1000 to 10000 pM; `CN(c1cc(C2CC2)ccc1Nc1cc(NC(=O)C2CC2)nc2[nH]n(C)c(=O)c12)S(C)(=O)=O` [Compound I-232]: less than 100 pM.

For `CN(c1cc(C2CCOCC2)ccc1Nc1cc(NC(=O)C2CC2)nc2[nH]n(C)c(=O)c12)S(C)(=O)=O` [Compound I-234], under “Table 4, JH2 binding assay”, the dissociation constant (Kd) was in the range of 100 to 500 pM.

For the molecule `CN(c1cc(C(F)(F)F)ccc1Nc1cc(NC(=O)C2CC2)nc2[nH]n(C)c(=O)c12)S(C)(=O)=O` [Compound I-235, N-(2-methyl-4-((2-(N-methylmethylsulfonamido)-4-(trifluoromethyl)phenyl)amino)-3-oxo-2,3-dihydro-1H-pyrazolo[3,4-b]pyridin-6-yl)cyclopropanecarboxamide], the Kd (Table 4, JH2 binding assay) is 100 to 500 pM. The same measure, in the same setting: next, `CN(c1cc(C2CCC2)ccc1Nc1cc(NC(=O)[C@@H]2C[C@@H]2F)nc2[nH]n(C)c(=O)c12)S(C)(=O)=O` [Compound I-236, (1S,2S)-N-(4-((4-cyclobutyl-2-(N-methylmethylsulfonamido)phenyl)amino)-2-methyl-3-oxo-2,3-dihydro-1H-pyrazolo[3,4-b]pyridin-6-yl)-2-fluorocyclopropane-1-carboxamide]: more than 10000 pM; `Cn1[nH]c2nc(NC(=O)[C@@H]3CC3(F)F)cc(Nc3ccc(C4CC4)cc3S(C)(=O)=O)c2c1=O` [Compound I-237]: 1000 to 10000 pM. Still for that read-out and setting: next, `Cn1[nH]c2nc(NC(=O)[C@H]3CC3(F)F)cc(Nc3ccc(C4CC4)cc3S(C)(=O)=O)c2c1=O` [Compound I-238, (R)-N-(4-((4-cyclopropyl-2-(methylsulfonyl)phenyl)amino)-2-methyl-3-oxo-2,3-dihydro-1H-pyrazolo[3,4-b]pyridin-6-yl)-2,2-difluorocyclopropane-1-carboxamide]: 100 to 500 pM; `Cn1[nH]c2nc(NC(=O)C3CC3(F)F)cc(Nc3ccc(C4CC4)cc3S(C)(=O)=O)c2c1=O` (stereo not shown) [Compound I-239, N-(4-((4-cyclopropyl-2-(methylsulfonyl)phenyl)amino)-2-methyl-3-oxo-2,3-dihydro-1H-pyrazolo[3,4-b]pyridin-6-yl)-2,2-difluorocyclopropane-1-carboxamide]: 100 to 500 pM. As to `CN(c1cc(C2CCCOC2)ccc1Nc1cc(NC(=O)C2CC2)nc2[nH]n(C)c(=O)c12)S(C)(=O)=O` (stereo not shown) [Compound I-240], the Kd (Table 4, JH2 binding assay) fell in the range of 100 to 500 pM.

With `COc1c(Nc2cc(N)nc3[nH]n(C)c(=O)c23)cccc1C(=O)O` [Compound I-241, 3-((6-amino-2-methyl-3-oxo-2,3-dihydro-1H-pyrazolo[3,4-b]pyridin-4-yl)amino)-2-methoxybenzoic acid], the Kd (Table 4, JH2 binding assay) was more than 10000 pM. Turning to `COc1c(Nc2cc(NC(=O)C3CC3)ncc2-c2nnc(CO)o2)cccc1-c1ncn(C)n1` [VIII-5, N-(5-(5-(hydroxymethyl)-1,3,4-oxadiazol-2-yl)-4-((2-methoxy-3-(1-methyl-1H-1,2,4-triazol-3-yl)phenyl)amino)pyridin-2-yl)cyclopropanecarboxamide], the Kd under setting [1] lay within 1000 to 10000 pM. Still for that read-out and setting: next, `COc1c(Nc2cc(NC(=O)C3CC3)ncc2-c2ncc(CO)s2)cccc1-c1ncn(C)n1` [VIII-6, N-(5-(5-(hydroxymethyl)thiazol-2-yl)-4-((2-methoxy-3-(1-methyl-1H-1,2,4-triazol-3-yl)phenyl)amino)pyridin-2-yl)cyclopropanecarboxamide]: 10000 to 100000 pM; `COc1c(Nc2cc(NC(=O)C3CC3)ncc2-c2nnc(C)s2)cccc1-c1ncn(C)n1` [VIII-7, N-(4-((2-methoxy-3-(1-methyl-1H-1,2,4-triazol-3-yl)phenyl)amino)-5-(5-methyl-1,3,4-thiadiazol-2-yl)pyridin-2-yl)cyclopropanecarboxamide]: 1000 to 10000 pM; `COc1c(Nc2cc(NC(=O)C3CC3)ncc2-c2ccon2)cccc1-c1nnn(C)n1` [VIII-8, N-(5-(isoxazol-3-yl)-4-((2-methoxy-3-(2-methyl-2H-tetrazol-5-yl)phenyl)amino)pyridin-2-yl)cyclopropanecarboxamide]: more than 100000 pM. For `COc1c(Nc2cc(NC(=O)C3CC3)ncc2-c2noc(CO)n2)cccc1-c1ncn(C)n1` [VIII-9, N-(5-(5-(hydroxymethyl)-1,2,4-oxadiazol-3-yl)-4-((2-methoxy-3-(1-methyl-1H-1,2,4-triazol-3-yl)phenyl)amino)pyridin-2-yl)cyclopropanecarboxamide], under setting [1], the Kd was more than 100000 pM.

`COc1c(Nc2cc(NC(=O)C3CC3)ncc2-n2cc(CO)cn2)cccc1-c1ncn(C)n1` [VIII-10, N-(5-(4-(hydroxymethyl)-1H-pyrazol-1-yl)-4-((2-methoxy-3-(1-methyl-1H-1,2,4-triazol-3-yl)phenyl)amino)pyridin-2-yl)cyclopropanecarboxamide]: under setting [1], the equilibrium dissociation constant (Kd) was more than 100000 pM. `COc1c(Nc2cc(NC(=O)C3CC3)ncc2-c2cccnn2)cccc1-c1ncn(C)n1` [VIII-11, N-(4-((2-methoxy-3-(1-methyl-1H-1,2,4-triazol-3-yl)phenyl)amino)-5-(pyridazin-3-yl)pyridin-2-yl)cyclopropanecarboxamide]: the Kd under setting [1] lay within 10000 to 100000 pM.

As a reminder, the Kd is the concentration at which binding is half-saturated.
